Active and inactive are the calls of the source. No cut-off for these calls is given here.
Tests used:
[1] = Acute toxicity in zebra fish assessed as effect on liver median fluorescence intensity at 0.3125 to 1.25 ug/ml and measured at 120 hpf by microscopic analysis; parameters: species or system Danio rerio; conditions: zebrafish; dose 0.3125-1.25 µg/ml
Danio rerio [2] = organism: Danio rerio; assay: Neuroprotective activity against AlCl3-induced Alzheimer's disease zebra fish model assessed as distance velocity at 0.0049 ug/ml treated for 24 hrs and measured after 24 hrs under alternating light dark stimuli conditions (reference value: 9 cm/min); type: functional; conditions: dose 0.0049 µg/ml; time 48 hrs
[3] = Acute toxicity in zebra fish assessed as ratio of pericardial edema to body weight at 0.15625 to 2.5 ug/ml and measured at 120 hpf by microscopic analysis; parameters: species or system Danio rerio; conditions: zebrafish; dose 0.15625-2.5 µg/ml
BV-2 [4] = assay: Cytotoxicity against mouse BV-2 cells assessed as reduction in cell viability at 10 uM by CCK8 assay; type: toxicity, cell-based; conditions: bv-2, 10 µM
Danio rerio [5] = organism: Danio rerio; assay: Antialzheimer activity against AlCl3-induced Alzheimer's disease zebra fish model assessed as total distance moved at 0.0195 ug/ml treated for 24 hrs and measured after 24 hrs under dark environment (reference value: 312 cm); type: functional; conditions: dose 0.0195 µg/ml; time 48 hrs
Danio rerio [6] = organism: Danio rerio; assay: Neuroprotective activity against AlCl3-induced Alzheimer's disease zebra fish model assessed as distance velocity at 0.078 ug/ml treated for 24 hrs and measured after 24 hrs under light environment (reference value: 7.7 cm/min); type: functional; conditions: dose 0.078 µg/ml; time 48 hrs
Acetylcholinesterase [7] = target: T1, Acetylcholinesterase (Electrophorus electricus, UniProt O42275); assay: Drug metabolism assessed as electric eel AChE-mediated 3-(4-fluorophenyl)-1-(2-hydroxyphenyl)prop-2-en-1-one formation treated at 150 mmol/L with 0.5U AChE and measured after 9 mins by HPLC analysis; type: ADME; conditions: 0.15 h
T1 sequence (O42275 whole entry): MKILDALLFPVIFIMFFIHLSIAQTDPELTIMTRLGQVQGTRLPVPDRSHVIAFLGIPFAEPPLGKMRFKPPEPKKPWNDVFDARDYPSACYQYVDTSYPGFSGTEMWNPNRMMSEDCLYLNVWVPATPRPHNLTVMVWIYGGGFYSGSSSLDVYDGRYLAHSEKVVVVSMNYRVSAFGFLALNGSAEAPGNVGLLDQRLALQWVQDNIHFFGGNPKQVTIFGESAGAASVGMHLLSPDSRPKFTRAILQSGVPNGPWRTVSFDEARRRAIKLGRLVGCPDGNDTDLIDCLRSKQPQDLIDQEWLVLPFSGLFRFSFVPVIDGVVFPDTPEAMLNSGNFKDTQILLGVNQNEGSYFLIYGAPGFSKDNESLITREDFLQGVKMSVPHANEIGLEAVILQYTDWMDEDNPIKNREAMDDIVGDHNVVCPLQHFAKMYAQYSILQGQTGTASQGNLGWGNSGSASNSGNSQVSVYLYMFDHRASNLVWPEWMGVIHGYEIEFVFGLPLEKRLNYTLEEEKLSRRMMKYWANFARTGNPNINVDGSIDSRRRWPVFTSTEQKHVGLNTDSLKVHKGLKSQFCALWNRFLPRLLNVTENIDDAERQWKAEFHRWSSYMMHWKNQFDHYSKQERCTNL

Cholinesterase [8] = target: T2, Cholinesterase (Equus caballus, UniProt P81908); assay: Drug metabolism assessed as equine serum BuChE-mediated 3-(4-fluorophenyl)-1-(2-hydroxyphenyl)prop-2-en-1-one formation by measuring decarbamoylation rate constant with 0.25U BuChE for 9 mins by HPLC analysis; type: ADME, cell-free; conditions: horse, 0.15 h
T2 sequence (P81908 whole entry): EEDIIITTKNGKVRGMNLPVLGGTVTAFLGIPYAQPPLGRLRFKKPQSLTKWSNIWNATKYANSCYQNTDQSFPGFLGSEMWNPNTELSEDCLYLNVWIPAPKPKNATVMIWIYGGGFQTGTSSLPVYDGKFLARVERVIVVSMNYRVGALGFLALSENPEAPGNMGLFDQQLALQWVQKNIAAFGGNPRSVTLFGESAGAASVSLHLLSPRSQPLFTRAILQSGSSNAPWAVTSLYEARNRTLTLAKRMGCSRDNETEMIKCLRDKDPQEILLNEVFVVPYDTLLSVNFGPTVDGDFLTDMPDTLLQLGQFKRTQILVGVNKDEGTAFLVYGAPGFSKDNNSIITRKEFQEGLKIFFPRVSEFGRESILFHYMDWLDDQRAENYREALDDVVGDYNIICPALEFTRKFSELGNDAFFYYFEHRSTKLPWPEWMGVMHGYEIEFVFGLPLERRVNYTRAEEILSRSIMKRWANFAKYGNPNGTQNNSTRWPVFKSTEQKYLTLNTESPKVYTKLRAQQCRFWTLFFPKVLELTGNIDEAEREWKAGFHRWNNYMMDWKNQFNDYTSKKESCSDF

PC-12 = assay: Cytotoxicity against rat PC-12 cells assessed as cell viability at 40 uM by CCK-8 assay; type: toxicity, cell-based; conditions: pc-12, 40 µM
Danio rerio [9] = organism: Danio rerio; assay: Antialzheimer activity against AlCl3-induced Alzheimer's disease zebra fish model assessed as total distance moved at 0.0195 ug/ml treated for 24 hrs and measured after 24 hrs under alternating light dark stimuli conditions (reference value: 543 cm); type: functional; conditions: dose 0.0195 µg/ml; time 48 hrs
Danio rerio [10] = organism: Danio rerio; assay: Neuroprotective activity against AlCl3-induced Alzheimer's disease zebra fish model assessed as increase in ACh content at 0.0049 to 0.078 ug/ml treated for 24 hrs and measured after 24 hrs; type: functional, organism-based; conditions: dose 0.0049-0.078 µg/ml, time 48.0 hrs
[11] = target: Cholinesterase (Equus caballus) (UniProt P81908); assay: Reversible inhibition of equine serum BuChE assessed as enzyme activity using butyrylthiocholine chloride as substrate measured after dilution to 1XIC50 by Ellman's method; type: cell-free; parameters: scale not given: the % may be the effect or the level left
Cholinesterase (Equus caballus), sequence (P81908 whole entry): as above

[12] = Metal chelating activity assessed as compound-Cu2+ complex formation by measuring maximum absorption wavelength shift from 316 to 446 nm at 37.5 uM incubated for 30 mins in presence of CuCl2 by UV-Vis spectrometry
Cholinesterase [13] = target: T2, Cholinesterase; assay: Inhibition of equine serum BuChE using butyrylthiocholine chloride as substrate by Ellman's method; type: cell-free
Acetylcholinesterase [14] = target: T1, Acetylcholinesterase; assay: Drug metabolism assessed as electric eel AChE-mediated 3-(4-fluorophenyl)-1-(2-hydroxyphenyl)prop-2-en-1-one formation treated at 150 mmol/L with 0.25U AChE and measured after 9 mins by HPLC analysis; type: ADME; conditions: 0.15 h
Acetylcholinesterase [15] = target: T1, Acetylcholinesterase; assay: Drug metabolism assessed as electric eel AChE-mediated 3-(4-fluorophenyl)-1-(2-hydroxyphenyl)prop-2-en-1-one formation treated at 150 mmol/L with 0.001U AChE and measured after 9 mins by HPLC analysis; type: ADME; conditions: 0.15 h
Danio rerio [16] = organism: Danio rerio; assay: Antialzheimer activity against AlCl3-induced Alzheimer's disease zebra fish model assessed as total distance moved at 0.0049 ug/ml treated for 24 hrs and measured after 24 hrs measured under light environment (reference value: 230 cm); type: functional; conditions: dose 0.0049 µg/ml; time 48 hrs
[17] = Acute toxicity in zebra fish assessed as maximum non-lethal dose; parameters: species or system Danio rerio; conditions: zebrafish
BV-2 [18] = assay: Anti-inflammatory activity against LPS-stimulated mouse BV-2 cells assessed as inhibition of LPS-induced IL-1 beta production incubated for 24 hrs in presence of LPS; type: functional, cell-based; conditions: dose 1-9 µM
Danio rerio [19] = organism: Danio rerio; assay: Neuroprotective activity against AlCl3-induced Alzheimer's disease zebra fish model assessed as distance velocity at 0.0195 ug/ml treated for 24 hrs and measured after 24 hrs under light environment (reference value: 7.7 cm/min); type: functional; conditions: dose 0.0195 µg/ml; time 48 hrs
Acetylcholinesterase [20] = target: T1, Acetylcholinesterase; assay: Drug metabolism assessed as electric eel AChE-mediated 3-(4-fluorophenyl)-1-(2-hydroxyphenyl)prop-2-en-1-one formation by measuring decarbamoylation rate constant treated with 0.25U AChE for 9 mins by HPLC analysis; type: ADME; conditions: 0.15 h
BV-2 [21] = assay: Anti-inflammatory activity against LPS-stimulated mouse BV-2 cells assessed as inhibition of LPS-induced NO production incubated for 24 hrs in presence of LPS; type: functional, cell-based; conditions: dose 1-9 µM
[22] = Stability of the compound in artificial gastric juice assessed as parent compound remaining at 1 mg/ml measured after 8 hrs by UPLC-MS/MS analysis; type: ADME; conditions: read-out: Stability
Danio rerio [23] = organism: Danio rerio; assay: Neuroprotective activity against AlCl3-induced Alzheimer's disease zebra fish model assessed as distance velocity at 0.078 ug/ml treated for 24 hrs and measured after 24 hrs under alternating light dark stimuli conditions (reference value: 9 cm/min); type: functional; conditions: dose 0.078 µg/ml; time 48 hrs
Danio rerio [24] = organism: Danio rerio; assay: Antialzheimer activity against AlCl3-induced Alzheimer's disease zebra fish model assessed as total distance moved at 0.0195 ug/ml treated for 24 hrs and measured after 24 hrs under light environment (reference value: 230 cm); type: functional; conditions: dose 0.0195 µg/ml; time 48 hrs
[25] = Metal chelating activity assessed as compound-Fe2+ complex formation at 37.5 uM incubated for 30 mins in presence of FeSO4 by UV-Vis spectrometry
Cholinesterase [26] = target: T2, Cholinesterase; assay: Drug metabolism assessed as equine serum BuChE-mediated 3-(4-fluorophenyl)-1-(2-hydroxyphenyl)prop-2-en-1-one formation with 0.25U BuChE for 9 mins by HPLC analysis; type: ADME, cell-free; conditions: horse, 0.15 h
[27] = Acute toxicity in zebra fish assessed as decrease in swim bladder area at 2.5 ug/ml and measured at 120 hpf by microscopic analysis; parameters: species or system Danio rerio; conditions: zebrafish; dose 2.5 µg/ml
Danio rerio [28] = organism: Danio rerio; assay: Antialzheimer activity against AlCl3-induced Alzheimer's disease zebra fish model assessed as total distance moved at 0.078 ug/ml treated for 24 hrs and measured after 24 hrs under alternating light dark stimuli conditions (reference value: 543 cm); type: functional; conditions: dose 0.078 µg/ml; time 48 hrs
[29] = Stability of the compound in rat liver microsomes assessed as parent compound remaining at 10 ug/ml measured after 60 mins by UPLC-MS/MS analysis; type: ADME, Microsome; conditions: at 10 µg/mL, read-out: Stability
Danio rerio [30] = organism: Danio rerio; assay: Neuroprotective activity against AlCl3-induced Alzheimer's disease zebra fish model assessed as distance velocity at 0.0049 ug/ml treated for 24 hrs and measured after 24 hrs under dark environment (reference value: 10.4 cm/min); type: functional; conditions: dose 0.0049 µg/ml; time 48 hrs

CCN(C)C(=O)Oc1ccccc1C(=O)/C=C/c1ccc(F)cc1
Activity [1]: Non-Toxic | Activity (Danio rerio [2]): 12.7 cm/min | Activity [3]: Non-Toxic | Activity (BV-2 [4]): Non-Toxic | Activity (Danio rerio [5]): 577 cm | Activity (Danio rerio [6]): 7.5 cm/min | Drug metabolism (Acetylcholinesterase [7]): 24.87 mmol/L | K (Cholinesterase [8]): 0.243 L/min/mmol | Activity (PC-12): Non-Toxic | Activity (Danio rerio [9]): 922 cm | Activity (Danio rerio [10]): Active | Activity [11]: 51.7% | Activity [12]: inactive | IC50 (Cholinesterase [13]): 12.4 µM | Drug metabolism (Acetylcholinesterase [14]): 22.57 mmol/L | Drug metabolism (Acetylcholinesterase [15]): 5.56 mmol/L | Activity (Danio rerio [16]): 373 cm | Activity [17]: 2.5 µg/mL | Activity (BV-2 [18]): Dose-Dependent Effect | Activity (Danio rerio [19]): 11.5 cm/min | K (Acetylcholinesterase [20]): 0.312 L/min/mmol | Activity (BV-2 [21]): Dose-Dependent Effect | remaining at 8 h, 1 mg/ml [22]: 97.3% | Activity (Danio rerio [23]): 12.7 cm/min | Activity (Danio rerio [24]): 344 cm | Activity [25]: inactive | Km (Cholinesterase [26]): 113 µM | Activity [27]: Toxic | Activity (Danio rerio [28]): 763 cm | remaining at 1 h, 10 ug/ml [29]: 96.2% | Activity (Danio rerio [30]): 13 cm/min

From ChEMBL document CHEMBL5346920, “Development of the "hidden" multi-target-directed ligands by AChE/BuChE for the treatment of Alzheimer's disease” (Eur J Med Chem, 2023)
